{
  "source": "patent US20190369111A1",
  "about": "“MOLECULAR KINETICS EVALUATION METHOD AND SCREENING METHOD” (Tokyo University of Science Foundation, priority 2016, published 2019)",
  "target": "T1, wild-type K-Ras protein (Homo sapiens, UniProt P01116)",
  "T1 construct": "expressed in transfected cells; host or cells: HeLa cells, transient transfection",
  "T1 sequence (P01116 1-188 isoform P01116-2)": "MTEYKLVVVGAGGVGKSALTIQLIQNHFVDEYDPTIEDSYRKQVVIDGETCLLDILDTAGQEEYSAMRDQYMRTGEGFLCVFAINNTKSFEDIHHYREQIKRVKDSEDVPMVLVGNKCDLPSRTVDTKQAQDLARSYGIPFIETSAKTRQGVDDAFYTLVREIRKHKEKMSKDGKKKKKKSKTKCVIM",
  "assay": "Degradation (knockdown) of forcibly expressed wild-type K-Ras protein in HeLa cells, Western blot analysis",
  "format": "cell-based",
  "procedure": "A plasmid expressing the wild-type K-Ras protein (K-Ras-WT) was prepared, as in Reference Example 1.\nAs in Reference Example 1, the plasmid was introduced into HeLa cells to transiently overexpress the wild-type K-Ras protein (specifically, a fusion protein of the wild-type K-Ras protein and GFP through a HA tag) or a DsRed protein for comparison in the cells. HeLa cells into which the plasmid had been introduced were seeded in a 24-well plate at a cell density of 4×10^4 cells/well, and then cultured under conditions of 37° C. and 5 vol % CO2 for 40 hours.\nCulture was performed for 40 hours after introduction of the plasmid, and then TUS-007 was added to HeLa cells as follows. As a medium, a serum-free medium (37° C.) in which 1 mass % L-glutamine solution (Sigma-Aldrich) was added to D-MEM (high D-glucose, phenol red, sodium pyruvate (Wako Pure Chemical Industries, Ltd.)) was used. […]\nAfter electrophoresis, proteins were transferred to a PVDF membrane (Immobion™-P, Millipore) under conditions of 100 V and 120 minutes using a tank-type blotting device and a transfer buffer (25 mM Tris-HCl, 195 mM glycine, 0.01% SDS, 15% methanol). […] Subsequently, the membrane was treated with a chemiluminescence reagent Immobilon™ Western (Millipore), and then chemiluminescence was detected using a lumino image analyzer LAS-3000 (FUJIFILM Corporation). […]",
  "data": [
    {"smiles": "CC[C@@H](C)[C@H](NC(=O)CCCCCCNC(=O)[C@H](CC(C)C)NC(=O)CNC(=O)c1cc(Cl)ccc1Cl)C(=O)Nc1ccc2[nH]c(Cc3c[nH]c4ccccc34)nc2c1", "note": "[TUS-007]", "values": [
      {"measurement": "amount of wild-type K-Ras protein", "setting": "24 hours after addition, relative to control (DMSO)", "value": "the amount of the wild-type K-Ras protein was reduced"},
      {"measurement": "amount of wild-type K-Ras protein when MLN2238 is added together", "setting": "both TUS-007 and MLN2238 added", "value": "the amount of the wild-type K-Ras protein was increased as compared with the amount of the control (DMSO)"}
    ]}
  ]
}
